In the OligoGym collection:
After the bases stand the sugars from the 5' end (letter, count) and the backbone: PS all phosphorothioate, else s phosphorothioate and o phosphodiester by linkage. Methylation of C is not given here. l = locked nucleic acid (LNA); d = 2'-deoxy (DNA)

Target: SNHG14
Settings: ASO
[1] = Mouse Primary Neuronal Cell, 0.005 µM

| Sequence | target mRNA inhibition (Human Neuronal Cell, 0.2 µM) [%] | target mRNA inhibition (Human Neuronal Cell, 1 µM) [%] | target mRNA inhibition (Human Neuronal Cell, 7.5 µM) [%] | also measured |
| --- | --- | --- | --- | --- |
| CTAACTGTTTCTCAATT (sugars l3 d11 l3, PS) | 29 | 32 | – | – |
| GACCACACTTTCTACC (sugars l2 d12 l2, PS) | 18 | 42 | – | – |
| GCTTTTAACCAGAGTGG (sugars l1 d12 l4, PS) | – | – | 73 | – |
| TAAAATTATTTATACACCAT (sugars lldddldddddddldlllll, PS) | – | – | 46 | – |
| TACATCTCATACTTGC (sugars l2 d11 l3, PS) | – | – | – | target mRNA inhibition [1]: 96.5% |
| TTTACACTTAATTATACTTC (sugars lldllddddddddldlllll, PS) | – | – | 29 | – |
| TCTGTATACACCATCCCA (sugars lddddlddddddddldll, PS) | – | – | 61 | – |
| CACATTATATTTAAACTAT (sugars l2 d13 l4, PS) | 6 | 14 | – | – |
| TTCTACTATACTTTCCTCT (sugars l1 d14 l1 d1 l2, PS) | – | – | 50 | – |
| CAAAGATCATTCTCAACA (sugars lllldldddddddlddll, PS) | – | – | 63 | – |
| AACTCTCACTGTAACT (sugars l4 d10 l2, PS) | 41 | 53 | – | – |
| TTCTACTATACTTTCCTCT (sugars ldldddddddddddlddll, PS) | – | – | 59 | – |
| GATCATTCTCAACAATTA (sugars ldllldddddddldldll, PS) | – | – | 35 | – |
| ACTCTGCAATACACCAA (sugars l1 d1 l2 d10 l3, PS) | – | – | 63 | – |
| TTCCATTTATTTCCATTTAT (sugars ldlddlddddddddldldll, PS) | – | – | 63 | – |
| GTTTCCATCTACTATTAA (sugars ldddlldddddddlldll, PS) | – | – | 53 | – |
| CCACCTTAAGTAACAT (sugars l3 d10 l3, PS) | 30 | 43 | – | – |
| CTATTCAATAAACTAAACA (sugars l4 d13 l2, PS) | -6 | -9 | – | – |
| ATCATTCTCAACAATTA (sugars l4 d7 l1 d1 l4, PS) | – | – | 53 | – |
| TCTTCAAGAATTCTCT (sugars l2 d10 l4, PS) | 44 | 46 | – | – |
| GTTTATACCCTTTCCAAT (sugars ldddlddddddddldlll, PS) | – | – | 56 | – |
| GAAAATCTCAACTACCATT (sugars ldllldddddddlddllll, PS) | – | – | 57 | – |
| TTCTACTATACTTTCCTCT (sugars ldddlddddddddddldll, PS) | – | – | 53 | – |

| Sequence | target mRNA inhibition (Human Neuronal Cell, 0.2 µM) [%] | target mRNA inhibition (Human Neuronal Cell, 1 µM) [%] | target mRNA inhibition (Human Neuronal Cell, 7.5 µM) [%] | also measured |
| --- | --- | --- | --- | --- |
| CTCAAAGATCATTCTCA (sugars l3 d10 l1 d1 l2, PS) | – | – | 61 | – |
| TCTTTCCATTTATTTCCATT (sugars l2 d4 l1 d10 l3, PS) | – | – | 57 | – |
| TTTATTTCCATTTATTTTCA (sugars ldldddddddddddlddlll, PS) | – | – | 60 | – |
| TTTTTTTCTTACTATCTTCA (sugars l2 d3 l1 d12 l2, PS) | – | – | 14 | – |
| AATTATTTATACACCATCAT (sugars llllddldddddddldddll, PS) | – | – | 61 | – |
| CCCTCAAAGTAATTTC (sugars l4 d10 l2, PS) | 21 | 20 | – | – |
| CTGTTTATACCCTTTCCA (sugars l1 d12 l1 d2 l2, PS) | – | – | 58 | – |
| TACTCTGCAATACACC (sugars l1 d3 l1 d7 l4, PS) | – | – | 63 | – |
| TCTTTCCATTTATTTCCAT (sugars l2 d3 l1 d11 l2, PS) | – | – | 54 | – |
| AGCAACATTATTAACCAC (sugars l2 d1 l1 d9 l5, PS) | – | – | 61 | – |
| CTTTAATGCTTCTAAC (sugars l2 d10 l4, PS) | -3 | 26 | – | – |
| CCTACATCTCATACTTG (sugars l2 d13 l2, PS) | 9 | 10 | – | target mRNA inhibition (Human Neuronal Cell, 5 µM): 36%; target mRNA inhibition [1]: 79.8% |
| AGCACATATACCATCA (sugars l4 d10 l2, PS) | 51 | 56 | – | – |
| AAGATCATTCTCAACAAT (sugars l2 d2 l2 d6 l6, PS) | – | – | 47 | – |
| TTTATTTCCATTTATTTTCA (sugars ldddlldddddddddlldll, PS) | – | – | 65 | – |
| CTCTGCAATACACCAA (sugars l2 d10 l4, PS) | 54 | 55 | – | – |
| AAGATCATTCTCAACA (sugars l4 d10 l2, PS) | 60 | 67 | – | – |
| GAAACTATTACTCCTA (sugars l2 d10 l4, PS) | 44 | 55 | – | – |
| CATCTGCTACATATTC (sugars l4 d10 l2, PS) | 49 | 58 | – | – |
| TATCTTTCCATTTATTTCC (sugars l1 d2 l1 d13 l2, PS) | – | – | 41 | – |
| TACTCTGCAATACACCA (sugars ldlddddddddddldll, PS) | – | – | 64 | – |
| ATCTTTCCATTTATTTCCA (sugars ldddlddddddddldddll, PS) | – | – | 42 | – |
| CCTCTGACAACCATTA (sugars l4 d10 l2, PS) | 30 | 31 | – | – |

| Sequence | target mRNA inhibition (Human Neuronal Cell, 0.2 µM) [%] | target mRNA inhibition (Human Neuronal Cell, 1 µM) [%] | target mRNA inhibition (Human Neuronal Cell, 7.5 µM) [%] | also measured |
| --- | --- | --- | --- | --- |
| TTTACATTGACACCTA (sugars l2 d10 l4, PS) | 20 | 31 | – | – |
| GTTCTACTATACTTTCCTC (sugars lddddldddddddddldll, PS) | – | – | 55 | – |
| GTTTCCATCTACTATTAAT (sugars ldldddddddddlldddll, PS) | – | – | 51 | – |
| AGTTCTACTATACTTTC (sugars l3 d11 l3, PS) | – | – | 57 | – |
| TTTTTATACCTTTCTTTAAC (sugars llldlddddddddldldlll, PS) | – | – | 62 | – |
| TTCTGTATACACCATCC (sugars l1 d12 l1 d1 l2, PS) | – | – | 62 | – |
| CCTAAGCTCCATATTT (sugars l4 d10 l2, PS) | 39 | 45 | – | – |
| TTGTCTCTAATCCTAT (sugars l2 d10 l4, PS) | 38 | 54 | – | – |
| ATATTGATTCAATTCCC (sugars l1 d3 l1 d8 l4, PS) | – | – | 67 | – |
| TATCTTTCCATTTATTTCC (sugars l2 d12 l1 d2 l2, PS) | – | – | 44 | – |
| GCAACATTATTAACCACCT (sugars lddldldddddddddddll, PS) | – | – | 60 | – |
| TTATAGCCATTCTATCT (sugars ldldddddddddlldll, PS) | – | – | 45 | – |
| ATCTCATGACCACCTAA (sugars l1 d12 l4, PS) | – | – | 48 | – |
| CCATGCTACATAAACC (sugars l4 d10 l2, PS) | 36 | 50 | – | – |
| TACACAAATACTTAAATCA (sugars l4 d13 l2, PS) | 7 | 19 | – | – |
| TATTGATTCAATTCCCT (sugars l1 d12 l4, PS) | – | – | 57 | – |
| TCCTCTGCTTATAACT (sugars l3 d11 l2, PS) | 51 | 77 | – | – |
| CTAATGCAATAACCCA (sugars l2 d10 l4, PS) | 45 | 34 | – | – |
| AATTATTTATACACCATCAT (sugars lllddllddddddldlldll, PS) | – | – | 56 | – |
| CCTTCCCTTTGATAACA (sugars l2 d12 l3, PS) | 43 | 62 | – | – |
| ACTGTTTATACCCTTTC (sugars l1 d2 l1 d9 l4, PS) | – | – | 45 | – |
| TGTTTATACCCTTTCCAA (sugars ldddldddddddddldll, PS) | – | – | 58 | – |
| TAAAATTATTTATACACCA (sugars lldlldddddddldldlll, PS) | – | – | 47 | – |

| Sequence | target mRNA inhibition (Human Neuronal Cell, 0.2 µM) [%] | target mRNA inhibition (Human Neuronal Cell, 1 µM) [%] | target mRNA inhibition (Human Neuronal Cell, 7.5 µM) [%] | also measured |
| --- | --- | --- | --- | --- |
| TTATACCTTTCTTTAACCCT (sugars ldldddldddddddddddll, PS) | – | – | 64 | – |
| TATACCTTTCTTTAACCCTT (sugars l1 d15 l1 d1 l2, PS) | – | – | 58 | – |
| TTTTAACCAGAGTGGCA (sugars l3 d11 l3, PS) | – | – | 56 | – |
| GAAAATCTCAACTACCATT (sugars llddldddddddlddddll, PS) | – | – | 52 | – |
| CTTCACACCTATTATATA (sugars l2 d12 l4, PS) | 7 | 32 | – | – |
| TTTACACTTAATTATACTTC (sugars llldlddddddddlddllll, PS) | – | – | 55 | – |
| AGCATTCAACCCTAATC (sugars l4 d11 l2, PS) | 52 | 50 | – | – |
| TTATAGCCATTCTATCT (sugars llddlddddddlddlll, PS) | – | – | 39 | – |
| CACTGATTTCCTTAAAC (sugars l4 d11 l2, PS) | 40 | 43 | – | – |
| ACCTACATCTCATACTT (sugars l2 d11 l4, PS) | – | – | – | target mRNA inhibition [1]: 94.2% |
| TACTCTGCAATACACCA (sugars l2 d10 l1 d2 l2, PS) | – | – | 61 | – |
| CCTTAATCTGTATCAC (sugars l3 d10 l3, PS) | 38 | 52 | – | – |
| AGCAACATTATTAACCAC (sugars ldllldddddddlldlll, PS) | – | – | 26 | – |
| TTTTTTTCTTACTATCTTCA (sugars lldldddddddddlddddll, PS) | – | – | 49 | – |
| TAGTCCTTCCTTTAACC (sugars l2 d13 l2, PS) | 20 | 16 | – | – |
| CTCTAATCCTATTCCA (sugars l3 d10 l3, PS) | 50 | 58 | – | – |
| TCTTTCCATTTATTTCCATT (sugars l2 d13 l1 d2 l2, PS) | – | – | 42 | – |
| TTTCCATTTATTTCCATTTA (sugars lddlddlddddddddlddll, PS) | – | – | 61 | – |
| TATTGATATTTACTCT (sugars l2 d10 l4, PS) | 30 | 38 | – | – |
| TTCTGTATACACCATCC (sugars ldddlddddddddldll, PS) | – | – | 65 | – |
| AGCTCCATATTTAAAT (sugars l4 d10 l2, PS) | 10 | -9 | – | – |
